Results: patent US9988680B2, “Non-natural nucleosides as theranostic agents” (Case Western Reserve University, priority 2011, dated 2018)

What was measured:
Loucy cells = experiment: In situ click reaction with AlexaFluor488-azide, flow cytometry, Loucy; type: cell-based; details: 10 μM, 2 days
Experimental: (§1) In situ “click” reactions were performed using cells harvested after 2 days of treatment with DMSO, 3-Eth-5-NIdR (10, 40, or 100 μg mL^−1), 5-NIdR (100 μg mL^−1) or 5-ethynyl-2′-deoxyuridine (EdU) (10 μM). All cells were fixed with cold methanol. Under minimal lighting, cells were treated with 0.3 mL of saponin-based permeabilization and wash buffer for 45 min at 37° C. Click reactions were initiated by adding the click-iT reaction cocktail according to the instructions of the manufacturer (Invitrogen) followed by incubation at 37° C. for 90 min. Cells were then washed two times with saponin-based permeabilization and wash buffer. Cell pellets were dislodged using 0.5 mL solution of 10 μg mL^−1 PI and RNAase A in saponin-based permeabilization and wash buffer and then incubated for at least 15 min prior to flow cytometry analysis.
MOLT4 cells were treated with DMSO, EdU (a “clickable” thymidine analogue), 5-NIdR, and 3-Eth-5-NIdR for 2 days and then washed with PBS to remove any nucleoside and/or nucleotide not incorporated into DNA. After fixation and permeabilization, the cells were treated with AlexaFluor488-azide and Cu(I) catalyst to commence “clicking” of any incorporated nonnatural nucleotide. […] Finally, it should be emphasized that low levels (<0.5%) of AlexaFluor488 staining are detected in cells treated with 100 μg mL^−1 5-NIdR.

MOLT4 cells = experiment: In situ click reaction with AlexaFluor488-azide, flow cytometry, MOLT4; type: cell-based; details: MOLT4, 10 μM, 2 days
Experimental: as §1
MOLT4 cells were treated with DMSO, EdU (a “clickable” thymidine analogue), 5-NIdR, and 3-Eth-5-NIdR for 2 days and then washed with PBS to remove any nucleoside and/or nucleotide not incorporated into DNA. After fixation and permeabilization, the cells were treated with AlexaFluor488-azide and Cu(I) catalyst to commence “clicking” of any incorporated nonnatural nucleotide. Dual parameter flow cytometry applying PI staining coupled with detection of the AlexaFluor488 fluorophore was used to detect the “clicked” non-natural nucleotide in cellular DNA. […] This high amount of “clicked” DNA reflects transport of EdU into the cell, conversion to the corresponding nucleoside triphosphate, and incorporation into the DNA of replicating cells. MOLT4 cells treated with 10 μg mL^−1 3-Eth-5-NIdR also show appreciable levels of AlexaFluor488 stained DNA (2.8%) after 2 days of treatment. Furthermore, the amount of “clicked” DNA is dosedependent as treatment with 40 μg mL^−1 Eth-5-NIdR yields a […] increase in AlexaFluor488 staining (6.5%). Identical experiments were performed using the Loucy cell line that lacks TdT and thus is less sensitive to the cytotoxic effects of the non-natural nucleoside (vide inf ra). […] Treatment with 40 μg mL^−1 of 3-Eth-5-NIdR produces low levels of “clicked” DNA (0.02%). […] Once incorporated into DNA, the non-natural nucleotide inhibits cellular DNA replication and induces apoptosis. Finally, it should be emphasized that low levels (<0.5%) of AlexaFluor488 staining are detected in cells treated with 100 μg mL^−1 5-NIdR.

[1] = target: terminal deoxynucleotidyl transferase (TdT) (Bos taurus, UniProt P06526); experiment: Incorporation of natural and non-natural nucleotides by TdT (polymerization assay, Michaelis-Menten kinetics); type: biochemical; details: incorporation by TdT; 6 units TdT, 1.5 μM single-stranded DNA substrate
Experimental: All enzymatic assays were performed as previously described. […] Reactions were quenched with 200 Mm EDTA at variable times (5-600 s) and analyzed using denaturing gel electrophoresis. Time courses in product formation were fitted using eq 1: Y=mt+b(1) (1)
where y is the amount of product, m is the rate of the reaction, t is time, and b is the Y-intercept. Km and Vmax values were determined by fits of the data points to the Michaelis-Menten equation: […]
where Vmax is the maximal rate of nucleotide incorporation, Km is the Michaelis constant for dNTP, and [dNTP] is the concentration of nucleotide substrate. The IC50 value for 3-Eth-5-NITP was obtained using a nonlinear regression curve fit of the data to eq 3:
The biological function of TdT is to expand immunological diversity by randomly incorporating dNTPs into single-stranded DNA during V(D)J recombination. […] TdT also utilizes nucleotide analogues including 2′,3′-dideoxynucleotides, dinucleoside 5′,5′-tetraphosphates, and intrinsically fluorescent nucleotide analogues. In this report, we tested if TdT also incorporates indolyl-2′-deoxyribose-5′-triphosphates that bear non-natural moieties such as ethynyl and nitro groups at the 3- and 5-position, respectively, of the indole base. […] Aliquots of the reaction were quenched with EDTA at variable time points, and the polymerization reactions were then subjected to denaturing polyacrylamide gel electrophoresis to separate extended primers from unreacted substrate.
Time courses in product formation were generated using pseudo-first order reaction conditions in which 6 units of TdT were incubated with 1.5 μM DNA substrate and mixed with variable concentrations of non-natural nucleotide (0.05-50 μM). Each time course was fit to an equation for a straight line to define the rate of nucleotide incorporation (data not shown).

Chain of terminal deoxynucleotidyl transferase (TdT) (P06526 whole entry): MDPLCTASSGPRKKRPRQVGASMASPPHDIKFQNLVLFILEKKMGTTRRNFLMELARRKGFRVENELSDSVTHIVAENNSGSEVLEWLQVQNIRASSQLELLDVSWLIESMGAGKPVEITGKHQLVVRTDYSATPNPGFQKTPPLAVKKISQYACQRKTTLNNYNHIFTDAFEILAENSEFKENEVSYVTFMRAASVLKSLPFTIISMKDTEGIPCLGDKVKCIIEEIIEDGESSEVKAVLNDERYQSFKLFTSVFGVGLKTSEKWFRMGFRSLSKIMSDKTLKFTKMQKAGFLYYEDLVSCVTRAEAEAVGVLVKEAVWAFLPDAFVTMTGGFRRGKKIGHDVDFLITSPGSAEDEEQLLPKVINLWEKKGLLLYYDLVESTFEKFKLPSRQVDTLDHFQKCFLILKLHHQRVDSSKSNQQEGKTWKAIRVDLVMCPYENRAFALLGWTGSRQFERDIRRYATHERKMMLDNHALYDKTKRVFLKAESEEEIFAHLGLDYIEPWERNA

| Km [1] [µM] | Vmax [1] [nM/s] | SMILES | AlexaFluor488 staining (clicked DNA) (Loucy cells) [%] | AlexaFluor488 stained (clicked) DNA (MOLT4 cells) [%] |
| --- | --- | --- | --- | --- |
| – | – | C#Cc1cn([C@H]2C[C@H](O)[C@@H](CO)O2)c(=O)[nH]c1=O [EdU, 5-ethynyl-2′-deoxyuridine, reference compound] | 59.2 | 36.1 |
| 1.5 ± 0.4 | 3.3 ± 0.3 | Nc1ncnc2c1ncn2[C@H]1C[C@H](O)[C@@H](COP(=O)(O)OP(=O)(O)OP(=O)(O)O)O1 [dATP] | – | – |
| 8 ± 0.9 | 29.2 ± 1.1 | Nc1nc2c(ncn2[C@H]2C[C@H](O)[C@@H](COP(=O)(O)OP(=O)(O)OP(=O)(O)O)O2)c(=O)[nH]1 [dGTP] | – | – |
